Experimental findings from patent US11193004B2, “Phosphoric ester preparations with reduced hygroscopicity” (LANXESS Deutschland GmbH, priority 2013, dated 2021) are described below.

Data set [1] in a line: Solubility in water of phosphoric esters b).
The next data set can be described thus: physchem. Particulars: 25 °C, water.

As to Isopropylated triphenyl phosphate [IPP], in data set [1], the “Solubility in water at 25° C.” value amounted to 0.33 µg/mL.

For the molecule Diphenyl cresyl phosphate [DPC], the “Solubility in water at 25° C.” value in data set [1] was 2.6 µg/mL.

Regarding `CCOP(=O)(OCC)OCC` [TEP, Triethyl phosphate], the solubility (commonly the dissolved amount per volume that the medium holds) in the data set “physchem” was more than 3000 µg/mL. Also, the “Solubility in water at 25° C.” value in data set [1] is on record as “miscible”.

Turning to `O=P(OC(CCl)CCl)(OC(CCl)CCl)OC(CCl)CCl` [TDCP, Tris(2,3-dichloroisopropyl) phosphate], the “Solubility in water at 25° C.” value in data set [1] is 100 µg/mL.
